From patent US8791163B2 (McGill University, priority 2006, dated 2014)

Tests used:
[1] = test system: Adult Sprague Dawley rats; assay: Elevated plus maze (EPM); format: in vivo, rat; conditions: melatonin 50 mg/kg
Method: The maze is comprised of two open arms (50×10 cm) and two closed arms (50×10×40 cm) that extend from a common central platform (10×10 cm). The apparatus, made of wood (painted black) was elevated to a height of 80 cm above floor level. The closed arms are located opposite one another. Behavior is recorded over a period of 5 min using a video camera positioned directly above the maze and rated by an observer blind to drug conditions. The major measure of interest is the amount of time spent in the open arms. As an index of general activity and distribution, the total number of entries into both open and closed arms was also recorded. […] In order to increase the sensitivity of this test to anxiolytic activity, tests are carried out under normal room illumination (25 W bulb).

[2] = molecular target: high-affinity MLT receptors; conditions: read-out: Ki, high-affinity MLT receptors; cited from earlier work
[3] = molecular target: T1, cloned human MT1 receptors (Homo sapiens, UniProt P48039); assay: 2-[125I]iodomelatonin competition binding, human MT1 in NIH3T3 cells; conditions: calculated from IC50 by Cheng-Prusoff, mean of at least three determinations
T1 construct: expressed in transfected cells
T1 sequence (P48039 whole entry): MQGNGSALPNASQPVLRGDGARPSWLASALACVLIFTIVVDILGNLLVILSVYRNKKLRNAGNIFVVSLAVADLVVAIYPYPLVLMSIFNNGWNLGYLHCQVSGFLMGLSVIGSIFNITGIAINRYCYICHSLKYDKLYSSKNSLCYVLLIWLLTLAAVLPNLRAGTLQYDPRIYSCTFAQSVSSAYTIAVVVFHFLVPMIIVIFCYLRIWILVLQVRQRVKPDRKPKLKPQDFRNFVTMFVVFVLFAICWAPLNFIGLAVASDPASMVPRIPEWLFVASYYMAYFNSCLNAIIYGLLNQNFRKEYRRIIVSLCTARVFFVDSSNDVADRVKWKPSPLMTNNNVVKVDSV
Method: (§1) Membranes were incubated for 90 min at 37° C. in binding buffer (Tris/HCl 50 mM, pH 7.4). The final membrane concentration was 5-10 μg of protein per tube. […] The pKi values are the mean of at least three independent determinations performed in duplicate. To define the functional activity of the compounds of Formula (I) at the MT1 and MT2 receptor subtypes, [^35S]GTPγS binding assays in NIH3T3 cells expressing human-cloned MT1 or MT2 receptors were performed. The amount of bound [^35S]GTPγS is proportional to the level of analogue-induced G-protein activation and is related to the intrinsic activity of the compound (i.e. a compound of Formula (I)) under study. […] Nonspecific binding was assessed using non-radiolabeled GTPγS (10 μM). […] Basal stimulation is the amount of [^35S]GTPγS specifically bound in the absence of the compounds of Formula (I) and was taken as 100%. […] All of the measurements were performed in triplicate.

[4] = molecular target: T1, cloned human MT1 receptors; assay: [35S]GTPγS binding assay, NIH3T3 cells expressing human MT1; format: biochemical; conditions: for MT1 IAr ± SEM (relative intrinsic activity): maximal net effect relative to MLT; for MT1 Activity: key: A = agonist; PA = partial agonist; ANT = antagonist; IA = Inverse agonist
Method: as §1

[5] = molecular target: T2, cloned human MT2 receptors (Homo sapiens, UniProt P49286); assay: [35S]GTPγS binding assay, NIH3T3 cells expressing human MT2; format: biochemical; conditions: for MT2 IAr ± SEM (relative intrinsic activity): maximal net effect relative to MLT; for MT2 Activity: key: A = agonist; PA = partial agonist; ANT = antagonist; IA = Inverse agonist
T2 construct: expressed in transfected cells
T2 sequence (P49286 1-362): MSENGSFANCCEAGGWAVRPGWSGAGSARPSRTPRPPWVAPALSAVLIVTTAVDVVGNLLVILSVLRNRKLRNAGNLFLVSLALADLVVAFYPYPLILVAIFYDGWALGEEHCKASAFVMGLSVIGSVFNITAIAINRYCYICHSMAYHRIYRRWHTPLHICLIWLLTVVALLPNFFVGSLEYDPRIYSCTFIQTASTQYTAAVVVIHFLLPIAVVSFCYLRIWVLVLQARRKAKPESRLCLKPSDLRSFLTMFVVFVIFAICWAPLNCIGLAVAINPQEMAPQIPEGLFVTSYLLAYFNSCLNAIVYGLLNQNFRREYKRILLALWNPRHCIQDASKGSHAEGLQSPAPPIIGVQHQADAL
Method: as §1

[6] = molecular target: T2, cloned human MT2 receptors; assay: 2-[125I]iodomelatonin competition binding, human MT2 in NIH3T3 cells; conditions: human MT2 in NIH3T3 cells; calculated from IC50 by Cheng-Prusoff; mean of at least three determinations
Method: as §1

Row | SMILES | Head Dips [1] | Percentage of time in Closed Arms [1] | Percentage of time in Open Arms [1] | Ki [2] [nM] | MT1 pKi [3] | MT1 IAr ± SEM (relative intrinsic activity) [4] | MT2 IAr ± SEM (relative intrinsic activity) [5] | melting point [°C] | MT2 pKi [6] | MT1 Activity [4] | MT2 Activity [5]
1 | COc1ccc2[nH]cc(CCNC(C)=O)c2c1 [MLT, N-acetyl-5-methoxytryptamine, reference compound] | 7.17 ± 0.89 | 73.33 ± 3.02 (P = 0.001) % | 26.67 ± 3.0 (P = 0.001) % | ~0.1 |  |  |  |  |  |  | 
2 | CCCC(=O)NCCN(c1ccccc1)c1cccc(OC)c1 [5n, N-{2-[(3-Methoxyphenyl)-phenylamino]ethyl}butanamide] |  |  |  |  | 8.38 ± 0.01 | 1.01 ± 0.04 | 0.73 ± 0.02 | 50 to 52 | 9.98 ± 0.26 |  | 
3 | COc1cccc(N(C)CCNC(C)=O)c1 [5j, N-{2-[(3-Methoxyphenyl)-methylamino]ethyl}acetamide] |  |  |  |  | 9.09 ± 0.10 | 0.95 ± 0.08 | 1.06 ± 0.05 | 69 to 71 | 9.19 ± 0.01 |  | 
4 | COc1ccc(N(CCNC(C)=O)c2ccccc2)cc1 [5e, N-{-2-[(4-Methoxyphenyl)-phenylamino]ethyl}acetamide] |  |  |  |  | 6.11 ± 0.12 | 0.02 ± 0.01 | 0.06 ± 0.03 | 102 to 104 | 7.56 ± 0.10 | ANT | ANT
5 | CC(=O)NCCN(c1ccccc1)c1ccccc1 [5a, N-[2-(diphenylamino)ethyl]acetamide] |  |  |  |  | 6.90 ± 0.04 | 0.10 ± 0.03 | 0.57 ± 0.04 | 44 to 45 | 8.41 ± 0.13 | ANT | 
